Assay results from US20250025473A1 (priority 2021, published 2025).
Read-outs that look alike come from different tables or passages of the source.

Assays:
panel of 393 kinases [1] = target: T1, panel of 393 kinases (Homo sapiens, UniProt P78527); assay: biochemical; conditions: CIMSS 10 μM, 10 μM ATP
T1 construct: purchased Reaction Biology Corporation

panel of 393 kinases [2] = target: T2, panel of 393 kinases (Homo sapiens, UniProt P54646); assay: biochemical; conditions: CIMSS 10 μM, 10 μM ATP
T2 construct: purchased Reaction Biology Corporation

panel of 393 kinases [3] = target: T3, panel of 393 kinases (Homo sapiens, UniProt Q15119); assay: biochemical; conditions: CIMSS 10 μM, 10 μM ATP
T3 construct: purchased Reaction Biology Corporation

panel of 393 kinases [4] = target: T4, panel of 393 kinases (Homo sapiens, UniProt Q15118); assay: biochemical; conditions: CIMSS 10 μM, 10 μM ATP
T4 construct: purchased Reaction Biology Corporation

panel of 393 kinases [5] = target: T5, panel of 393 kinases (Homo sapiens, UniProt Q15120); assay: biochemical; conditions: CIMSS 10 μM, 10 μM ATP
T5 construct: purchased Reaction Biology Corporation

panel of 393 kinases [6] = target: T6, panel of 393 kinases (Homo sapiens, UniProt P42345); assay: biochemical; conditions: CIMSS 10 μM, 10 μM ATP
T6 construct: purchased Reaction Biology Corporation

panel of 393 kinases [7] = target: T7, panel of 393 kinases (Homo sapiens, UniProt Q9BQI3); assay: biochemical; conditions: CIMSS 10 μM, 10 μM ATP
T7 construct: purchased Reaction Biology Corporation

panel of 393 kinases [8] = target: T8, panel of 393 kinases (Homo sapiens, UniProt Q9NZJ5); assay: biochemical; conditions: CIMSS 10 μM, 10 μM ATP
T8 construct: purchased Reaction Biology Corporation

panel of 393 kinases [9] = target: T9, panel of 393 kinases (Homo sapiens, UniProt O00418); assay: biochemical; conditions: CIMSS 10 μM, 10 μM ATP
T9 construct: purchased Reaction Biology Corporation

panel of 393 kinases [10] = target: T10, panel of 393 kinases (Homo sapiens, UniProt Q96QT4); assay: biochemical; conditions: CIMSS 10 μM, 10 μM ATP
T10 construct: purchased Reaction Biology Corporation

panel of 393 kinases [11] = target: T11, panel of 393 kinases (Homo sapiens, UniProt Q16654); assay: biochemical; conditions: CIMSS 10 μM, 10 μM ATP
T11 construct: purchased Reaction Biology Corporation

panel of 393 kinases [12] = target: T12, panel of 393 kinases (Homo sapiens, UniProt Q13131); assay: biochemical; conditions: CIMSS 10 μM, 10 μM ATP
T12 construct: purchased Reaction Biology Corporation

panel of 393 kinases [13] = target: T13, panel of 393 kinases (Homo sapiens, UniProt Q9P2K8); assay: biochemical; conditions: CIMSS 10 μM, 10 μM ATP
T13 construct: purchased Reaction Biology Corporation

PKA = PKA (Homo sapiens, UniProt P17612); assay: HotSpot in vitro kinase assay, PKA
HSV-2(G) = assay: HSV binding assay (gD Western blot); assay type: cell-based; conditions: 10 μM, HaCat, 4 hours at 4° C.
PKCd = PKCd (Homo sapiens, UniProt Q05655); assay: HotSpot in vitro kinase assay, PKCd; conditions: read-out: Compound IC50, PKCd; in vitro kinase activity
HaCat cells = assay: Apoptosis assays (activated caspases, SYTOX Green, cleaved PARP-1/caspase 8)
Insulin Receptor = Insulin Receptor (Homo sapiens, UniProt P06213); assay: HotSpot in vitro kinase assay, Insulin Receptor
Akt, PDPK1 = assay type: cell-based, monkey; conditions: 10 μM, Vero, VSV-S, 30 and 60 minutes

T12 sequence (Q13131 whole entry): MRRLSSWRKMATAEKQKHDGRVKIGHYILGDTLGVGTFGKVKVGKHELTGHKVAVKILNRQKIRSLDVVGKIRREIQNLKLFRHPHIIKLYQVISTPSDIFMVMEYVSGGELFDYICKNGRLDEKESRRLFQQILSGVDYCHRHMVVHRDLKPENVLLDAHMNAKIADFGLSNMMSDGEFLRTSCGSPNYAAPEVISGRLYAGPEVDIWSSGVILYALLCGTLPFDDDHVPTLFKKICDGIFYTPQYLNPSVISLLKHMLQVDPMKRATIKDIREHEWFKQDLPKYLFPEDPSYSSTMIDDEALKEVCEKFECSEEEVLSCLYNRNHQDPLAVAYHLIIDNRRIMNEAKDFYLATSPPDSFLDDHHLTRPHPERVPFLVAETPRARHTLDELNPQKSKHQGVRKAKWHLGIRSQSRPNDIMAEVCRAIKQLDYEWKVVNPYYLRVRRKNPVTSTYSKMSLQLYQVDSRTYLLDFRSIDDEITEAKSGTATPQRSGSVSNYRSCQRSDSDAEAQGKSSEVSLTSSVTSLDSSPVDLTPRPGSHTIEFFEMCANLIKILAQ
T2 sequence (P54646 whole entry): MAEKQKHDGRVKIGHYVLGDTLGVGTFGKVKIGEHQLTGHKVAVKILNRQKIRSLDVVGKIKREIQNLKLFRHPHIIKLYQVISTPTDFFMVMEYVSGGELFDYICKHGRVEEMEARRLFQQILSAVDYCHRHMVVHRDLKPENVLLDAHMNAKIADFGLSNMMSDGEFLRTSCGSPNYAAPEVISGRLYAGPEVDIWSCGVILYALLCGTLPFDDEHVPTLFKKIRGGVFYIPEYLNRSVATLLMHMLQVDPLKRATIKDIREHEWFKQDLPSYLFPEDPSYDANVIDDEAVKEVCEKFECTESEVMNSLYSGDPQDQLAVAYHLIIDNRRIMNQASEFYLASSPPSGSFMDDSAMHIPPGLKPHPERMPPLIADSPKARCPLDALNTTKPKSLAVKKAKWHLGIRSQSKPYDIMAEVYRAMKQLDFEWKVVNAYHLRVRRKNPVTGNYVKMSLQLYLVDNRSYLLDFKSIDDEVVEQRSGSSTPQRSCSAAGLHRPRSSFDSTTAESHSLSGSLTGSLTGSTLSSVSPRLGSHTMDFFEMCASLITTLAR
T4 sequence (Q15118 29-436): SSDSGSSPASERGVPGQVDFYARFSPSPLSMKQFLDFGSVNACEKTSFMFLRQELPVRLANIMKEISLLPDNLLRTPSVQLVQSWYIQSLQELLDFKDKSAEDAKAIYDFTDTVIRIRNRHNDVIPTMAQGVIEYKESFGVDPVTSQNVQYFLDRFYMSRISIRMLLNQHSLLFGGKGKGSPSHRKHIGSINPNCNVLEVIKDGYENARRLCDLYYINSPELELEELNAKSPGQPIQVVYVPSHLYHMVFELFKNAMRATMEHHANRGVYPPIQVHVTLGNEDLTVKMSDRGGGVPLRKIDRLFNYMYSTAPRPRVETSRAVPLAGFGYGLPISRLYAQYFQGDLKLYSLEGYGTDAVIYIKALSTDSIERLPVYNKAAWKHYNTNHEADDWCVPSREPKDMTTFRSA
T9 sequence (O00418 whole entry): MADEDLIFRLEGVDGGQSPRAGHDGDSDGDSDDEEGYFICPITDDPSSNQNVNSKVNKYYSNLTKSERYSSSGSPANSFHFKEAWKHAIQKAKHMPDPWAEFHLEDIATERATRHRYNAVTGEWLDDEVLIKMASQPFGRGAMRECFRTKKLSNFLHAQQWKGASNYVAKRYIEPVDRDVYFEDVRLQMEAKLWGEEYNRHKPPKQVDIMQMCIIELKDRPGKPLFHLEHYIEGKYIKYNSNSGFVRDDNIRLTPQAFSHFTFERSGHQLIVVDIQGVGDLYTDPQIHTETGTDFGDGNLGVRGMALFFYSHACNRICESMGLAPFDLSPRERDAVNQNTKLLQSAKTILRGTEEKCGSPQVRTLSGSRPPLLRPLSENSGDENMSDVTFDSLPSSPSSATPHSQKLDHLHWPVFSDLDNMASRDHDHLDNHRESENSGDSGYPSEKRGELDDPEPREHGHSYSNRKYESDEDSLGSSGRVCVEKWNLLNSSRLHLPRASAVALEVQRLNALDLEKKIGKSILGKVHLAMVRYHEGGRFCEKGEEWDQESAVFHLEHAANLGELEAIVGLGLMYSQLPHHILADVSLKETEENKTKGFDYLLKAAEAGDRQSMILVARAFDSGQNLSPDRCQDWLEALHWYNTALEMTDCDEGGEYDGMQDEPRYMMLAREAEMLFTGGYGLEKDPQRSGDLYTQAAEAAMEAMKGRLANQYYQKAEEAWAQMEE
T13 sequence (Q9P2K8 whole entry): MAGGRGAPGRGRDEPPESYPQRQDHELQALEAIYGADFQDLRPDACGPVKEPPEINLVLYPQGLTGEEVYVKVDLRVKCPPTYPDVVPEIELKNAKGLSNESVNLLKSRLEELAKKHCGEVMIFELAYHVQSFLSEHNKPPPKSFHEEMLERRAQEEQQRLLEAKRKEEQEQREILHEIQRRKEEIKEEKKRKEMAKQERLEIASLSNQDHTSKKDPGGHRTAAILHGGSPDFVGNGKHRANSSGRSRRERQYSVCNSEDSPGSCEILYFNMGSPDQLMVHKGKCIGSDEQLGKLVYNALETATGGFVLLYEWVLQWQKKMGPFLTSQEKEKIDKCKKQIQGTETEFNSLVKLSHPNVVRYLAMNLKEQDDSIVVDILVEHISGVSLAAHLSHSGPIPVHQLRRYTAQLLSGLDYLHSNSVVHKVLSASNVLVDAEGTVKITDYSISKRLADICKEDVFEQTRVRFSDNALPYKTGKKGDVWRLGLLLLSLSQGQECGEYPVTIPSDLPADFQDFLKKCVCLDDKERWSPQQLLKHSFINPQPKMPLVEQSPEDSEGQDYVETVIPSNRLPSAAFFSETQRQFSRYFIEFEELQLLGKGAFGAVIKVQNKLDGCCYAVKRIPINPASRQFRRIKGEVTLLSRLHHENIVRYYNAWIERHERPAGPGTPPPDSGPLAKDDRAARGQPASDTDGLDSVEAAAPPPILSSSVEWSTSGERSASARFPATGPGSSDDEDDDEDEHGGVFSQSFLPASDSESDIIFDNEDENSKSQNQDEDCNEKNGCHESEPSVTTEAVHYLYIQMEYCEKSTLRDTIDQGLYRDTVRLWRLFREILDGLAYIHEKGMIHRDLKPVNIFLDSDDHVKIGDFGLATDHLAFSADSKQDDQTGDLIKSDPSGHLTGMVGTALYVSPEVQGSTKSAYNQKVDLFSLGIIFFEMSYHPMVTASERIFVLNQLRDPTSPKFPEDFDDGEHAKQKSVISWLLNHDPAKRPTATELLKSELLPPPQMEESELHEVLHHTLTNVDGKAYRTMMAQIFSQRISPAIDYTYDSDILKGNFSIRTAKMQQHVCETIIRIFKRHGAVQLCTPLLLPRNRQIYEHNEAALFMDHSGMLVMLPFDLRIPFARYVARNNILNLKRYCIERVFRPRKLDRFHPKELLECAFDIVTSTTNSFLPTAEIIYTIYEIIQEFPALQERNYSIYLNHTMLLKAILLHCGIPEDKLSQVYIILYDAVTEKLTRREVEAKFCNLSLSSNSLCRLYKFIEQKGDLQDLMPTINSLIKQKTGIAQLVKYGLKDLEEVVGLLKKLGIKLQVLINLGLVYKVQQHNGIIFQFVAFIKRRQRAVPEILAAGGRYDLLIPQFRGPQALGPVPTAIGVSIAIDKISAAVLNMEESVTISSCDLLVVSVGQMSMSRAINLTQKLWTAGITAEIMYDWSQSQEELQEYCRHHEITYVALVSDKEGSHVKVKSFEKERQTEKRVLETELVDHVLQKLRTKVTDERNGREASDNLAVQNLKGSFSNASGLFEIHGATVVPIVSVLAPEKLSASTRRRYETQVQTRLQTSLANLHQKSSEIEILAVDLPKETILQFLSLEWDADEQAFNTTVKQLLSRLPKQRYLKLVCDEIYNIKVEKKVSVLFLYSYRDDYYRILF
T8 sequence (Q9NZJ5 30-1116): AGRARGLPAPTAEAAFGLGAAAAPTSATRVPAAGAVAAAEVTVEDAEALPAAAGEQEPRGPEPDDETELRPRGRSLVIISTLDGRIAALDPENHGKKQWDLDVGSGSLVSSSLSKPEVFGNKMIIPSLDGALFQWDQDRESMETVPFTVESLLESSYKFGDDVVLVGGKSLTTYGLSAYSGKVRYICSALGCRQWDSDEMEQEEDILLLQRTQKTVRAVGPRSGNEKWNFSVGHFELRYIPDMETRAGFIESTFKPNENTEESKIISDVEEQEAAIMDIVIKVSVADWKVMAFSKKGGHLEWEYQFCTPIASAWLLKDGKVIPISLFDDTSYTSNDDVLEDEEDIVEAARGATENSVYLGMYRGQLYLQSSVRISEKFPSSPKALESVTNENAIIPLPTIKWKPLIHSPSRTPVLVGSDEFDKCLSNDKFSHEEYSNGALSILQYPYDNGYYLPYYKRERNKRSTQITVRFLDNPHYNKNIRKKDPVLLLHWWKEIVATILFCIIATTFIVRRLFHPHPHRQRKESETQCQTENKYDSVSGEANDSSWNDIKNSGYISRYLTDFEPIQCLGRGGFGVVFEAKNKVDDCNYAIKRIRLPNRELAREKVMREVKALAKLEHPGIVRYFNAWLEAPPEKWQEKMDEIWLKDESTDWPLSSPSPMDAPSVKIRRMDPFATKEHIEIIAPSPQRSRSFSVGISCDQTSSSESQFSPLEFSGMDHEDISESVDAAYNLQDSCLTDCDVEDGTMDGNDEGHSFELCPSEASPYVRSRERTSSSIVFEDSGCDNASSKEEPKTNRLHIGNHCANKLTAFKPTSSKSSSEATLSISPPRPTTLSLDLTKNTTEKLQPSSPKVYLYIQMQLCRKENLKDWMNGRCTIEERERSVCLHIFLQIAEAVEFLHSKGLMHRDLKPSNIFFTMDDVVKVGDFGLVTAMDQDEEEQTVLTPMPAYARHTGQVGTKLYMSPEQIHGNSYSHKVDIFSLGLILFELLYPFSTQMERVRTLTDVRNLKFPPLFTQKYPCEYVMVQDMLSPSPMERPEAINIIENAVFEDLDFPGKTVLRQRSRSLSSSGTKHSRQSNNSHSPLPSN

`CO[C@@H]1[C@H](N(C)C(=O)CCC(=O)NCc2cn(CCCS(=O)(=O)[O-])nn2)C[C@H]2O[C@]1(C)n1c3ccccc3c3c4c(c5c6ccccc6n2c5c31)C(=O)NC4.[Na+]` [CIMSS] was tested, and the remaining activity at 10 µM (panel of 393 kinases [1]; read-out: % Enzyme Activity (relative to DMSO controls) CIMSS (10 μM) Data 1, kinase DNA-PK, Data 1) was 98.2%, the remaining activity at 10 µM (panel of 393 kinases [1]; read-out: % Enzyme Activity (relative to DMSO controls) CIMSS (10 μM) Data 2, kinase DNA-PK, Data 2) was 95.8% and the remaining activity at 10 µM (panel of 393 kinases [2]; read-out: % Enzyme Activity (relative to DMSO controls) CIMSS (10 μM) Data 1, kinase AMPK (A2/B1/G3), Data 1) was 0.67%. For the same compound, the remaining activity at 10 µM (panel of 393 kinases [2]; read-out: % Enzyme Activity (relative to DMSO controls) CIMSS (10 μM) Data 1, kinase AMPK(A2/B1/G1), Data 1) was 0.76%, the remaining activity at 10 µM (panel of 393 kinases [2]; read-out: % Enzyme Activity (relative to DMSO controls) CIMSS (10 μM) Data 1, kinase AMPK(A2/B2/G1), Data 1) was 0.34% and the remaining activity at 10 µM (panel of 393 kinases [2]; read-out: % Enzyme Activity (relative to DMSO controls) CIMSS (10 μM) Data 1, kinase AMPK(A2/B2/G2), Data 1) was 0.73%. For the same compound, the remaining activity at 10 µM (panel of 393 kinases [2]; read-out: % Enzyme Activity (relative to DMSO controls) CIMSS (10 μM) Data 1, kinase AMPK(A2/B2/G3), Data 1) was 0.63%, the remaining activity at 10 µM (panel of 393 kinases [2]; read-out: % Enzyme Activity (relative to DMSO controls) CIMSS (10 μM) Data 2, kinase AMPK (A2/B1/G3), Data 2) was 0.59% and the remaining activity at 10 µM (panel of 393 kinases [2]; read-out: % Enzyme Activity (relative to DMSO controls) CIMSS (10 μM) Data 2, kinase AMPK(A2/B1/G1), Data 2) was 0.64%. For the same compound, the remaining activity at 10 µM (panel of 393 kinases [2]; read-out: % Enzyme Activity (relative to DMSO controls) CIMSS (10 μM) Data 2, kinase AMPK(A2/B2/G1), Data 2) was 0.23%, the remaining activity at 10 µM (panel of 393 kinases [2]; read-out: % Enzyme Activity (relative to DMSO controls) CIMSS (10 μM) Data 2, kinase AMPK(A2/B2/G2), Data 2) was 0.63% and the remaining activity at 10 µM (panel of 393 kinases [2]; read-out: % Enzyme Activity (relative to DMSO controls) CIMSS (10 μM) Data 2, kinase AMPK(A2/B2/G3), Data 2) was 0.61%. It also gave a remaining activity at 10 µM (panel of 393 kinases [3]; read-out: % Enzyme Activity (relative to DMSO controls) CIMSS (10 μM) Data 1, kinase PDK2/PDHK2, Data 1) of 95.5%, a remaining activity at 10 µM (panel of 393 kinases [3]; read-out: % Enzyme Activity (relative to DMSO controls) CIMSS (10 μM) Data 2, kinase PDK2/PDHK2, Data 2) of 94% and a remaining activity at 10 µM (panel of 393 kinases [4]; read-out: % Enzyme Activity (relative to DMSO controls) CIMSS (10 μM) Data 1, kinase PDK1/PDHK1, Data 1) of 97.2%. For the same compound, the remaining activity at 10 µM (panel of 393 kinases [4]; read-out: % Enzyme Activity (relative to DMSO controls) CIMSS (10 μM) Data 2, kinase PDK1/PDHK1, Data 2) was 96.8%, the remaining activity at 10 µM (panel of 393 kinases [5]; read-out: % Enzyme Activity (relative to DMSO controls) CIMSS (10 μM) Data 1, kinase PDK3/PDHK3, Data 1) was 96.4% and the remaining activity at 10 µM (panel of 393 kinases [5]; read-out: % Enzyme Activity (relative to DMSO controls) CIMSS (10 μM) Data 2, kinase PDK3/PDHK3, Data 2) was 94.8%. It also gave a remaining activity at 10 µM (panel of 393 kinases [6]; read-out: % Enzyme Activity (relative to DMSO controls) CIMSS (10 μM) Data 1, kinase mTOR/FRAP1, Data 1) of 112%, a remaining activity at 10 µM (panel of 393 kinases [6]; read-out: % Enzyme Activity (relative to DMSO controls) CIMSS (10 μM) Data 2, kinase mTOR/FRAP1, Data 2) of 108% and a remaining activity at 10 µM (panel of 393 kinases [7]; read-out: % Enzyme Activity (relative to DMSO controls) CIMSS (10 μM) Data 1, kinase EIF2AK1, Data 1) of 82.5%. For the same compound, the remaining activity at 10 µM (panel of 393 kinases [7]; read-out: % Enzyme Activity (relative to DMSO controls) CIMSS (10 μM) Data 2, kinase EIF2AK1, Data 2) was 81.2%, the remaining activity at 10 µM (panel of 393 kinases [8]; read-out: % Enzyme Activity (relative to DMSO controls) CIMSS (10 μM) Data 1, kinase EIF2AK3, Data 1) was 61.6% and the remaining activity at 10 µM (panel of 393 kinases [8]; read-out: % Enzyme Activity (relative to DMSO controls) CIMSS (10 μM) Data 2, kinase EIF2AK3, Data 2) was 60.2%. The remaining activity at 10 µM (panel of 393 kinases [9]; read-out: % Enzyme Activity (relative to DMSO controls) CIMSS (10 μM) Data 1, kinase EEF2K, Data 1) was 99.5%, the remaining activity at 10 µM (panel of 393 kinases [9]; read-out: % Enzyme Activity (relative to DMSO controls) CIMSS (10 μM) Data 2, kinase EEF2K, Data 2) was 97% and the remaining activity at 10 µM (panel of 393 kinases [10]; read-out: % Enzyme Activity (relative to DMSO controls) CIMSS (10 μM) Data 1, kinase TRPM7/CHAK1, Data 1) was 91.6%. The remaining activity at 10 µM (panel of 393 kinases [10]; read-out: % Enzyme Activity (relative to DMSO controls) CIMSS (10 μM) Data 2, kinase TRPM7/CHAK1, Data 2) was 91.5%, the remaining activity at 10 µM (panel of 393 kinases [11]; read-out: % Enzyme Activity (relative to DMSO controls) CIMSS (10 μM) Data 1, kinase PDK4/PDHK4, Data 1) was 93.2% and the remaining activity at 10 µM (panel of 393 kinases [11]; read-out: % Enzyme Activity (relative to DMSO controls) CIMSS (10 μM) Data 2, kinase PDK4/PDHK4, Data 2) was 93%. The remaining activity at 10 µM (panel of 393 kinases [12]; read-out: % Enzyme Activity (relative to DMSO controls) CIMSS (10 μM) Data 1, kinase AMPK(A1/B1/G1), Data 1) was 1.14%, the remaining activity at 10 µM (panel of 393 kinases [12]; read-out: % Enzyme Activity (relative to DMSO controls) CIMSS (10 μM) Data 1, kinase AMPK(A1/B1/G2), Data 1) was 1.46% and the remaining activity at 10 µM (panel of 393 kinases [12]; read-out: % Enzyme Activity (relative to DMSO controls) CIMSS (10 μM) Data 1, kinase AMPK(A1/B1/G3), Data 1) was 0.22%. It also gave a remaining activity at 10 µM (panel of 393 kinases [12]; read-out: % Enzyme Activity (relative to DMSO controls) CIMSS (10 μM) Data 1, kinase AMPK(A1/B2/G1), Data 1) of 0.73%, a remaining activity at 10 µM (panel of 393 kinases [12]; read-out: % Enzyme Activity (relative to DMSO controls) CIMSS (10 μM) Data 2, kinase AMPK(A1/B1/G1), Data 2) of 1.14% and a remaining activity at 10 µM (panel of 393 kinases [12]; read-out: % Enzyme Activity (relative to DMSO controls) CIMSS (10 μM) Data 2, kinase AMPK(A1/B1/G2), Data 2) of 1.23%. For the same compound, the remaining activity at 10 µM (panel of 393 kinases [12]; read-out: % Enzyme Activity (relative to DMSO controls) CIMSS (10 μM) Data 2, kinase AMPK(A1/B1/G3), Data 2) was 0.07%, the remaining activity at 10 µM (panel of 393 kinases [12]; read-out: % Enzyme Activity (relative to DMSO controls) CIMSS (10 μM) Data 2, kinase AMPK(A1/B2/G1), Data 2) was 0.57% and the remaining activity at 10 µM (panel of 393 kinases [13]; read-out: % Enzyme Activity (relative to DMSO controls) CIMSS (10 μM) Data 1, kinase EIF2AK4, Data 1) was 9.5%. The remaining activity at 10 µM (panel of 393 kinases [13]; read-out: % Enzyme Activity (relative to DMSO controls) CIMSS (10 μM) Data 2, kinase EIF2AK4, Data 2) was 9.39%, the “fold less effective than staurosporine (IC50), PKA” value (PKA) was roughly 46 fold and the IC50 (PKA; read-out: Compound IC50, PKA, in vitro kinase activity) was 42.3 nM. For the same compound, the “HSV binding to cells” value (HSV-2(G)) was “did not block”, the IC50 (PKCd) was 3.64 nM and the “induction of apoptosis (SYTOX Green and anti-caspase staining)” value (HaCat cells; 10 μM, 6 or 24 hours) was “did not induce apoptosis”. The “PARP-1 or caspase 8 cleavage” value (HaCat cells; 0.1, 1 or 10 μM, 8 hours) was “did not induce PARP-1 or caspase 8 cleavage”, the “fold less effective than staurosporine (IC50), insulin receptor” value (Insulin Receptor) was roughly 40 fold and the IC50 (Insulin Receptor; read-out: Compound IC50, Insulin Receptor, in vitro kinase activity) was 803 nM. For the same compound, the “extracellular phosphorylation of Akt (biotinylation, pAktT308)” value (Akt, PDPK1) was “inhibited”.
